Test results as given in patent publication US8557853B2, “Aryl fluoroethyl ureas acting as alpha 2 adrenergic agents” (Allergan, Inc., priority 2007, dated 2013).
Like-named read-outs stand apart in the source and are kept apart here.

Key:
Assay type in all cases: cell-based
[1] = biological target: T1, alpha2C receptor (Homo sapiens, UniProt P18825); test: RSAT (Receptor Selection and Amplification Technology) assay, alpha 2C; details: for EC50 / Alpha 2C EC50: RSAT, transfected NIH-3T3 cells, "not active" = not active at concentrations less than 10 micromolar; for Alpha 2C IA: intrinsic activity: ratio of maximal effect of drug to maximal effect of standard full agonist brimonidine (UK14304)
T1 construct: expressed in transfected cells; host or cells: NIH-3T3 cells
T1 sequence (P18825 1-462): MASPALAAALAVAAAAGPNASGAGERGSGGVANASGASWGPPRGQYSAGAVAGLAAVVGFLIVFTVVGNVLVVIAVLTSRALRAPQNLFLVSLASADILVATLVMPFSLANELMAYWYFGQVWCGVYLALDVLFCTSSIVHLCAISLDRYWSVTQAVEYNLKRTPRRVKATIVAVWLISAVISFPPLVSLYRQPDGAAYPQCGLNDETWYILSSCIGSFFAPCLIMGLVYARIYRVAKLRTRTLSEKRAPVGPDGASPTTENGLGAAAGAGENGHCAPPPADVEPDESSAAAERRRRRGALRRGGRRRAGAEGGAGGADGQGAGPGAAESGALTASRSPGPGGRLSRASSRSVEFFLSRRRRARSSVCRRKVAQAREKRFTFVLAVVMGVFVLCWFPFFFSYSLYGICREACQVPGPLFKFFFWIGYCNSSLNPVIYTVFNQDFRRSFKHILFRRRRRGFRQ
From the text: (§1) The aryl fluoroethyl ureas of the invention are agonists of alpha2 adrenergic receptors. […] Al, 1995, Pharmacol. Toxicol. 76, pp. 308-311 (incorporated herein by reference) and is also described below. Another reference pertinent to this assay is Conklin et al. (1993) Nature 363:274-6, Receptor Selection and Amplification Technology (RSAT) assay, also incorporated herein by reference.
(§2) The RSAT assay measures a receptor-mediated loss of contact inhibition that results in selective proliferation of receptor-containing cells in a mixed population of confluent cells. The increase in cell number is assessed with an appropriate transfected marker gene such as ∃-galactosidase, the activity of which can be easily measured in a 96-well format. Receptors that activate the G protein, Gq, elicit this response. Alpha 2 receptors, which normally couple to Gi, activate the RSAT response when coexpressed with a hybrid Gq protein that has a Gi receptor recognition domain, called Gq/i5.
(§3) NIH-3T3 cells are plated at a density of 2×10^6 cells in 15 cm dishes and maintained in Dulbecco's modified Eagle's medium supplemented with 10% calf serum. One day later, cells are cotransfected by calcium phosphate precipitation with mammalian expression plasmids encoding p-SV-β-galactosidase (5-10 μg), receptor (1-2 μg) and G protein (1-2 μg). 40 μg salmon sperm DNA may also be included in the transfection mixture. Fresh media is added on the following day and 1-2 days later, cells are harvested and frozen in 50 assay aliquots. Cells are thawed and 100 μl added to 100 μl aliquots of various concentrations of drugs in triplicate in 96-well dishes. Incubations continue 72-96 hr at 37° C. After washing with phosphate-buffered saline, ∃-galactosidase enzyme activity is determined by adding 200 μl of the chromogenic substrate (consisting of 3.5 mM o-nitrophenyl-β-D-galactopyranoside and 0.5% nonidet P-40 in phosphate buffered saline), incubating overnight at 30° C. and measuring optical density at 420 nm. The absorbance is a measure of enzyme activity, which depends on cell number and reflects a receptor-mediated cell proliferation. The efficacy or intrinsic activity is calculated as a ratio of the maximal effect of the drug to the maximal effect of a standard full agonist for each receptor subtype. Brimonidine, also called UK14304, the chemical structure of which is shown below, is used as the standard agonist for the alpha2A, alpha2B and alpha2C receptors.
(§4) The results of the RSAT assay with several exemplary compounds of the invention are disclosed in Table 1 below together with the chemical structures of these compounds. “Not active” means the compounds are not active at concentrations less than 10 micromolar.

[2] = biological target: T2, alpha2B receptor (Homo sapiens, UniProt P18089); test: RSAT (Receptor Selection and Amplification Technology) assay, alpha 2B; details: for Alpha 2B IA: intrinsic activity: ratio of maximal effect of drug to maximal effect of standard full agonist brimonidine (UK14304)
T2 construct: expressed in transfected cells; host or cells: NIH-3T3 cells
T2 sequence (P18089 1-450): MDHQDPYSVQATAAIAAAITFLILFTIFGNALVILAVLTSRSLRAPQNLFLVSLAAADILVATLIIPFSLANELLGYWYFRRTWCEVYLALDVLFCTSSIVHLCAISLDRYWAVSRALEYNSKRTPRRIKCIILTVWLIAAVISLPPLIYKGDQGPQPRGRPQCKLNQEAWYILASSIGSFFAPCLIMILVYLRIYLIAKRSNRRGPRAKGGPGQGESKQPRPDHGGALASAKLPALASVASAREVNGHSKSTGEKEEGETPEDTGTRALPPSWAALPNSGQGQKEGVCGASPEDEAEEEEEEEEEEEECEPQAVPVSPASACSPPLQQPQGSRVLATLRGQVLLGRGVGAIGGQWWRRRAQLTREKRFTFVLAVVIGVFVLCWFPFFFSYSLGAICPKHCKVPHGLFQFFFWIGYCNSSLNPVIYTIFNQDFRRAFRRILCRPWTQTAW
Description: as §2, §3

[3] = biological target: T3, alpha2A receptor (Homo sapiens, UniProt P08913); test: RSAT (Receptor Selection and Amplification Technology) assay, alpha 2A; details: for Alpha 2A EC50 / EC50: RSAT, transfected NIH-3T3 cells, "not active" = not active at concentrations less than 10 micromolar; for Alpha 2A IA: intrinsic activity: ratio of maximal effect of drug to maximal effect of standard full agonist brimonidine (UK14304)
T3 construct: expressed in transfected cells; host or cells: NIH-3T3 cells
T3 sequence (P08913 1-465): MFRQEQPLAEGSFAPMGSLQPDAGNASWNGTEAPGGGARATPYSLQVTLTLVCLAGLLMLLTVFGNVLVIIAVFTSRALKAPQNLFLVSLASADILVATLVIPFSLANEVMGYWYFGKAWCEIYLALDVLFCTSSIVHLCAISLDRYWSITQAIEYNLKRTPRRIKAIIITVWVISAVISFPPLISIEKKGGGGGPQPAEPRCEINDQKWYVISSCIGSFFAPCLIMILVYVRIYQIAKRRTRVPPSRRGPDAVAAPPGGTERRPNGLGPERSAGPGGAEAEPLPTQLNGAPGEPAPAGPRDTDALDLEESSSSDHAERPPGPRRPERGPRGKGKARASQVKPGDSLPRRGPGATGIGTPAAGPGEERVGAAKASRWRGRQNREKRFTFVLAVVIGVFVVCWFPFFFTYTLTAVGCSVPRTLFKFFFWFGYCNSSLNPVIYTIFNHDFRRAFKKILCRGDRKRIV
From the text: as §1, §2, §3, §4

[4] = RSAT, transfected NIH-3T3 cells, "not active" = not active at concentrations less than 10 micromolar, read-out: Alpha 2B EC50

SMILES	EC50 [1]	Alpha 2C IA [1]	EC50 [2, 4]	Alpha 2B IA [2]	Alpha 2A EC50 [3]	EC50 [3]	Alpha 2A IA [3]	Alpha 2C EC50 [1]	EC50 [2]
O=C(NCCF)Nc1cccc2c1CCCC2 [Compound 28, 1-(2-fluoro-ethyl)-3-(5,6,7,8-tetrahydro-naphthalen-1-yl)-urea]	285 nM	0.74	157 nM	0.87		385 nM	0.43		
Cc1cc(CNC(=O)NCCF)nn1C [Compound 44, 1-(1,5-dimethyl-1H-pyrazol-3-ylmethyl)-3-(2-fluoro-ethyl)-urea]	4160 nM	0.31	2280 nM	0.67	not active				
CCc1ccccc1NC(=O)NCCF [Compound 24, 1-(2-ethyl-phenyl)-3-(2-fluoro-ethyl)-urea]	> 2000 nM	0.36	> 2000 nM	0.82		2670 nM	0.35		
Cc1cccnc1CNC(=O)NCCF [Compound 37, 1-(2-fluoro-ethyl)-3-(3-methyl-pyridin-2-ylmethyl)-urea]				0.40	not active			not active	3540 nM
COc1c(Cl)cccc1CNC(=O)NCCF [Compound 16, 1-(3-chloro-2-methoxy-benzyl)-3-(2-fluoro-ethyl)-urea]	724 nM	0.72	93 nM	1.32		1020 nM	0.66		
COc1c(Br)cccc1CNC(=O)NCCF [Compound 19, 1-(3-bromo-2-methoxy-benzyl)-3-(2-fluoro-ethyl)-urea]			2530 nM	0.83	not active			not active	
Cc1cccc(CNC(=O)NCCF)c1 [Compound 5, 1-(2-fluoro-ethyl)-3-(3-methyl-benzyl)-urea]	876 nM	0.74	88 nM	1.26		980 nM	0.48		
O=C(NCCF)NCc1ccccc1I [Compound 12, 1-(2-fluoro-ethyl)-3-(2-iodo-benzyl)-urea]	489 nM	0.78	277 nM	0.89	not active				
O=C(NCCF)NCc1ccccn1 [Compound 35, 1-(2-fluoro-ethyl)-3-pyridin-2-ylmethyl-urea]	3710 nM	0.38		0.75	not active				1990 nM
Cc1nn(C)c(C)c1CNC(=O)NCCF [Compound 43, 1-(2-fluoro-ethyl)-3-(1,3,5-trimethyl-1H-pyrazol-4-ylmethyl)-urea]			2390 nM	0.49		4200 nM	0.30	not active	
Cc1cccc(C(NC(=O)NCCF)c2ccc(C)s2)c1 (centres unmarked) [Compound 34, 1-(2-fluoro-ethyl)-3-[(5-methyl-thiophen-2-yl)-m-tolyl-methyl]-urea]			829 nM	0.41	not active			not active	

The remaining molecules from weak to strong by EC50 [2, 4], led by results:

EC50 [1]	Alpha 2C IA [1]	EC50 [2, 4]	Alpha 2B IA [2]	Alpha 2A EC50 [3]	EC50 [3]	Alpha 2A IA [3]	Alpha 2C EC50 [1]	SMILES	EC50 [2]
> 2000 nM	0.59	1580 nM	0.99		1270 nM	0.58		O=C(NCCF)Nc1ccc2ccccc2c1 [Compound 25, 1-(2-fluoro-ethyl)-3-naphthalen-2-yl-urea]	
2160 nM	0.65	592 nM	0.85	not active				O=C(NCCF)NCc1cccc(Br)n1 [Compound 38, 1-(6-bromo-pyridin-2-ylmethyl)-3-(2-fluoro-ethyl)-urea]	
> 2000 nM	0.66	458 nM	0.9		1060 nM	0.74		O=C(NCCF)Nc1cccc2ccccc12 [Compound 30, 1-(2-fluoro-ethyl)-3-naphthalen-1-yl-urea]	
740 nM	0.73	401 nM	0.9		> 2000 nM	0.54		Cc1cccc(NC(=O)NCCF)c1C [Compound 27, 1-(2,3-dimethyl-phenyl)-3-(2-fluoro-ethyl)-urea]	
556 nM	0.81	355 nM	0.84		> 2000 nM	0.46		O=C(NCCF)NCc1cccc(Br)c1 [Compound 7, 1-(3-bromo-benzyl)-3-(2-fluoro-ethyl)-urea]	
800 nM	0.69	293 nM	0.84	not active				O=C(NCCF)NCc1ccc(O)cc1 [Compound 41, 1-(2-fluoro-ethyl)-3-(4-hydroxy-benzyl)-urea]	
1290 nM	0.78	152 nM	1.13	not active				Cc1ccccc1CNC(=O)NCCF [Compound 2, 1-(2-fluoro-ethyl)-3-(2-methyl-benzyl)-urea]	
488 nM	1.1	85 nM	0.9		122 nM	0.36		O=C(NCCF)NCc1ccccc1Br [Compound 6, 1-(2-bromo-benzyl)-3-(2-fluoro-ethyl)-urea]	
1380 nM	0.94	40 nM	1.24		400 nM	0.36		Cc1c(Cl)cccc1CNC(=O)NCCF [Compound 18, 1-(3-chloro-2-methyl-benzyl)-3-(2-fluoro-ethyl)-urea]	
297 nM	0.88	25 nM	1.3		224 nM	0.46		O=C(NCCF)NCc1cccc(Br)c1Cl [Compound 15, 1-(3-bromo-2-chloro-benzyl)-3-(2-fluoro-ethyl)-urea]	
